Data taken from ChEMBL document CHEMBL5154823, “Amphiphilic cyclic peptide [W4KR5]-Antibiotics combinations as broad-spectrum antimicrobial agents” (Eur J Med Chem, 2022).
Values after ≈ are worked out from the molar mass of the structure shown. Active and inactive are the calls of the source. The calls are words filed in the database; no cut-off is given here. Where a SMILES comes first, the peptide text is derived from it.

What was measured:
Staphylococcus aureus [1] = experiment: Synergistic antibacterial activity against Staphylococcus aureus ATCC 29213 assessed as fractional inhibitory concentration index incubated for 24 hrs in presence of meropenem by checkerboard assay; assay type: functional
Klebsiella pneumoniae [2] = experiment: Synergistic antibacterial activity against Klebsiella pneumoniae ATCC BAA 1705 assessed as fractional inhibitory concentration index incubated for 24 hrs in presence of ciprofloxacin by checkerboard assay; assay type: functional
Klebsiella pneumoniae [3] = experiment: Antibacterial activity against Klebsiella pneumoniae ATCC BAA 1705 assessed as polymyxin B MIC incubated for 24 hrs by microbroth dilution assay; assay type: functional
Klebsiella pneumoniae [4] = experiment: Synergistic antibacterial activity against Klebsiella pneumoniae ATCC BAA 1705 assessed as fractional inhibitory concentration index incubated for 24 hrs in presence of kanamycin by checkerboard assay; assay type: functional
Escherichia coli [5] = experiment: Antibacterial activity against Escherichia coli ATCC 25922 assessed as polymyxin B MIC incubated for 24 hrs by microbroth dilution assay; assay type: functional
Escherichia coli [6] = experiment: Antibacterial activity against Escherichia coli ATCC 25922 assessed as tetracycline MIC incubated for 24 hrs by microbroth dilution assay; assay type: functional
Pseudomonas aeruginosa [7] = experiment: Antibacterial activity against Pseudomonas aeruginosa ATCC 27883 assessed as ciprofloxacin MIC incubated for 24 hrs by microbroth dilution assay; assay type: functional
Staphylococcus aureus [8] = experiment: Antibacterial activity against Staphylococcus aureus ATCC BAA -1556 assessed as levofloxacin MIC incubated for 24 hrs by microbroth dilution assay; assay type: functional
Klebsiella pneumoniae [9] = experiment: Antibacterial activity against Klebsiella pneumoniae ATCC BAA 1705 assessed as levofloxacin MIC incubated for 24 hrs by microbroth dilution assay; assay type: functional
Klebsiella pneumoniae [10] = experiment: Antibacterial activity against imipenem resistant Klebsiella pneumoniae ATCC BAA 1705 assessed as reduction in microbial growth incubated for 24 hrs by microbroth dilution method; assay type: functional
Staphylococcus aureus [11] = experiment: Antibacterial activity against Staphylococcus aureus ATCC 29213 assessed as reduction in microbial growth incubated for 24 hrs by microbroth dilution method; assay type: functional
Staphylococcus aureus [12] = experiment: Bactericidal activity against methicillin resistant Staphylococcus aureus ATCC BAA 1556 assessed as reduction in bacterial viability at MIC measured after 2 hrs by Time kill assay; assay type: functional, organism-based
Klebsiella pneumoniae [13] = experiment: Bactericidal activity against Klebsiella pneumoniae ATCC BAA 1705 assessed as decrease of bacterial growth at MIC by Time kill assay; assay type: functional, organism-based
Staphylococcus aureus [14] = experiment: Synergistic antibacterial activity against methicillin resistant Staphylococcus aureus ATCC BAA -1556 assessed as fractional inhibitory concentration index incubated for 24 hrs in presence of tetracycline by checkerboard assay; assay type: functional
Pseudomonas aeruginosa [15] = experiment: Antibacterial activity against Pseudomonas aeruginosa ATCC 27883 assessed as vancomycin MIC incubated for 24 hrs by microbroth dilution assay; assay type: functional
[16] = Cytotoxicity against HEK293 cells assessed as effect on cell viability at 10 to 25 ug/ml incubated for 24 hrs by microplate reader analysis relative to control; assay type: toxicity, cell-based; settings: human, at 10 to 25 µg/mL, dose 10-25 µg/ml, read-out: Activity
Escherichia coli [17] = experiment: Antibacterial activity against Escherichia coli ATCC 25922 assessed as vancomycin MIC incubated for 24 hrs by microbroth dilution assay; assay type: functional
Klebsiella pneumoniae [18] = experiment: Antibacterial activity against Klebsiella pneumoniae ATCC BAA 1705 assessed as vancomycin MIC incubated for 24 hrs by microbroth dilution assay; assay type: functional
Cell membrane [19] = experiment: Induction of membrane disruption in Pseudomonas aeruginosa ATCC BAA 1744 assessed as increase in PI positive cells at 4 times of MIC incubated for 2 hrs by Propidium iodide staining based FACS cytometry analysis relative to control; assay type: subcellular
Escherichia coli [20] = experiment: Antibacterial activity against Escherichia coli ATCC 25922 assessed as levofloxacin MIC incubated for 24 hrs by microbroth dilution assay; assay type: functional
Klebsiella pneumoniae [21] = experiment: Antibacterial activity against Klebsiella pneumoniae ATCC 13883 assessed as reduction in microbial growth incubated for 24 hrs by microbroth dilution method; assay type: functional
Escherichia coli [22] = experiment: Synergistic antibacterial activity against Escherichia coli ATCC 25922 assessed as fractional inhibitory concentration index incubated for 24 hrs in presence of ciprofloxacin by checkerboard assay; assay type: functional
Escherichia coli [23] = experiment: Synergistic antibacterial activity against Escherichia coli ATCC 25922 assessed as fractional inhibitory concentration index incubated for 24 hrs in presence of meropenem by checkerboard assay; assay type: functional
Klebsiella pneumoniae [24] = experiment: Bactericidal activity against Klebsiella pneumoniae ATCC BAA 1705 assessed as decrease in bacterial growth at MIC measured after 18 hrs by Time kill assay; assay type: functional, organism-based
[25] = Hemolytic activity in human Red blood cell incubated for 2 hrs by spectrophotometric analysis; assay type: toxicity, cell-based, Erythrocyte; settings: red blood cells (erythrocytes)
Klebsiella pneumoniae [26] = experiment: Bactericidal activity against Klebsiella pneumoniae ATCC BAA 1705 assessed as reduction in colony formation at MIC measured after 24 hrs by Time kill assay; assay type: functional, organism-based
Pseudomonas aeruginosa [27] = experiment: Synergistic antibacterial activity against Pseudomonas aeruginosa ATCC 27883 assessed as fractional inhibitory concentration index incubated for 24 hrs in presence of ciprofloxacin by checkerboard assay; assay type: functional
Pseudomonas aeruginosa [28] = experiment: Bactericidal activity against Pseudomonas aeruginosa ATCC BAA 1744 assessed as reduction in colony formation at MIC measured after 18 hrs by Time kill assay; assay type: functional, organism-based
Klebsiella pneumoniae [29] = experiment: Antibacterial activity against Klebsiella pneumoniae ATCC BAA 1705 assessed as kanamycin MIC incubated for 24 hrs by microbroth dilution assay; assay type: functional
Klebsiella pneumoniae [30] = experiment: Antibacterial activity against Klebsiella pneumoniae ATCC BAA 1705 assessed as clindamycin MIC incubated for 24 hrs by microbroth dilution assay; assay type: functional
Cell membrane [31] = experiment: Induction of membrane disruption in Pseudomonas aeruginosa ATCC BAA 1744 assessed as increase in PI positive cells at MIC incubated for 2 hrs by Propidium iodide staining based FACS cytometry analysis relative to control
Klebsiella pneumoniae [32] = experiment: Antibacterial activity against Klebsiella pneumoniae ATCC BAA 1705 assessed as tobramycin MIC incubated for 24 hrs by microbroth dilution assay; assay type: functional
Klebsiella pneumoniae [33] = experiment: Synergistic antibacterial activity against Klebsiella pneumoniae ATCC BAA 1705 assessed as fractional inhibitory concentration index incubated for 24 hrs in presence of vancomycin by checkerboard assay; assay type: functional
Staphylococcus aureus [34] = experiment: Antibacterial activity against Staphylococcus aureus ATCC BAA -1556 assessed clindamycin MIC incubated for 24 hrs by microbroth dilution assay; assay type: functional
Pseudomonas aeruginosa [35] = experiment: Antibacterial activity against Pseudomonas aeruginosa ATCC 27883 assessed as reduction in microbial growth incubated for 24 hrs by microbroth dilution method; assay type: functional
Pseudomonas aeruginosa [36] = experiment: Synergistic antibacterial activity against carbapenem resistant Pseudomonas aeruginosa ATCC BAA 1744 assessed as fractional inhibitory concentration index incubated for 24 hrs in presence of meropenem by checkerboard assay; assay type: functional
Pseudomonas aeruginosa [37] = experiment: Bactericidal activity against Pseudomonas aeruginosa ATCC BAA 1744 assessed as decrease of bacterial growth at MIC measured after 12 hrs by Time kill assay; assay type: functional, organism-based
Escherichia coli [38] = experiment: Synergistic antibacterial activity against Escherichia coli ATCC 25922 assessed as fractional inhibitory concentration index incubated for 24 hrs in presence of polymyxin B by checkerboard assay; assay type: functional
Pseudomonas aeruginosa [39] = experiment: Synergistic antibacterial activity against Pseudomonas aeruginosa ATCC 27883 assessed as fractional inhibitory concentration index incubated for 24 hrs in presence of polymyxin B by checkerboard assay; assay type: functional
Escherichia coli [40] = experiment: Bactericidal activity against Escherichia coli ATCC BAA 2452 assessed as reduction in bacterial growth at MIC measured after 8 hrs by Time kill assay; assay type: functional, organism-based
Klebsiella pneumoniae [41] = experiment: Antibacterial activity against Klebsiella pneumoniae ATCC BAA 1705 assessed as tetracycline MIC incubated for 24 hrs by microbroth dilution assay; assay type: functional

Question: Which “fractional inhibitory concentration index (FICI)” value (Staphylococcus aureus [1]) does the source give for N=C(N)NCCC[C@@H]1NC(=O)[C@H](CCCNC(=N)N)NC(=O)[C@H](CCCNC(=N)N)NC(=O)[C@H](CCCNC(=N)N)NC(=O)[C@H](Cc2c[nH]c3ccccc23)NC(=O)[C@H](Cc2c[nH]c3ccccc23)NC(=O)[C@H](Cc2c[nH]c3ccccc23)NC(=O)[C@H](Cc2c[nH]c3ccccc23)NC(=O)[C@H](CCCCN)NC(=O)[C@H](CCCNC(=N)N)NC1=O (cyclo(KWWWWRRRRR)) here?
Answer: 0.5

Question: What about the “fractional inhibitory concentration index (FICI)” value (Klebsiella pneumoniae [2]) of the same molecule?
Answer: 0.562

Question: What about the MIC (Klebsiella pneumoniae [3]) of the same molecule?
Answer: 0.063 µg/mL

Question: And the “fractional inhibitory concentration index (FICI)” value (Klebsiella pneumoniae [4])?
Answer: 0.375

Question: What about the MIC (Escherichia coli [5]) of the same molecule?
Answer: 0.125 µg/mL

Question: What about the MIC (Escherichia coli [6]) of the same molecule?
Answer: 2 µg/mL

Question: What about the MIC (Pseudomonas aeruginosa [7]) of the same molecule?
Answer: 0.125 µg/mL

Question: And the MIC (Staphylococcus aureus [8])?
Answer: 1 µg/mL

Question: And the MIC (Klebsiella pneumoniae [9])?
Answer: 8 µg/mL

Question: What about the MIC (Klebsiella pneumoniae [10]) of the same molecule?
Answer: 32 µg/mL

Question: What about the MIC (Staphylococcus aureus [11]) of the same molecule?
Answer: 4 µg/mL

Question: What about the Activity (Staphylococcus aureus [12]) of the same molecule?
Answer: Active

Question: And the Activity (Klebsiella pneumoniae [13])?
Answer: Active

Question: What about the “fractional inhibitory concentration index (FICI)” value (Staphylococcus aureus [14]) of the same molecule?
Answer: 0.5

Question: What about the MIC (Pseudomonas aeruginosa [15]) of the same molecule?
Answer: 8 µg/mL

Question: What about the viability at 24 h [16] of the same molecule?
Answer: 86%

Question: What about the MIC (Escherichia coli [17]) of the same molecule?
Answer: 16 µg/mL

Question: What about the MIC (Klebsiella pneumoniae [18]) of the same molecule?
Answer: 16 µg/mL

Question: What about the Activity (Cell membrane [19]) of the same molecule?
Answer: 66.8%

Question: What about the MIC (Escherichia coli [20]) of the same molecule?
Answer: 8 µg/mL

Question: And the MIC (Klebsiella pneumoniae [21])?
Answer: 16 µg/mL

Question: And the “fractional inhibitory concentration index (FICI)” value (Escherichia coli [22])?
Answer: 0.625

Question: What about the “fractional inhibitory concentration index (FICI)” value (Escherichia coli [23]) of the same molecule?
Answer: 1.25

Question: And the Activity (Klebsiella pneumoniae [24])?
Answer: Active

Question: What about the HC50 at 2 h [25] of the same molecule?
Answer: 320 µg/mL

Question: What about the Activity (Klebsiella pneumoniae [26]) of the same molecule?
Answer: Active

Question: What about the “fractional inhibitory concentration index (FICI)” value (Pseudomonas aeruginosa [27]) of the same molecule?
Answer: 0.5

Question: And the Activity (Pseudomonas aeruginosa [28])?
Answer: Active

Question: And the MIC (Klebsiella pneumoniae [29])?
Answer: 8 µg/mL

Question: And the MIC (Klebsiella pneumoniae [30])?
Answer: 2 µg/mL

Question: What about the Activity (Cell membrane [31]) of the same molecule?
Answer: 39.9%

Question: What about the MIC (Klebsiella pneumoniae [32]) of the same molecule?
Answer: 2 µg/mL

Question: And the “fractional inhibitory concentration index (FICI)” value (Klebsiella pneumoniae [33])?
Answer: 0.5625

Question: And the MIC (Staphylococcus aureus [34])?
Answer: 0.031 µg/mL (≈ 0.0187 µM)

Question: And the MIC (Pseudomonas aeruginosa [35])?
Answer: 16 µg/mL

Question: What about the “fractional inhibitory concentration index (FICI)” value (Pseudomonas aeruginosa [36]) of the same molecule?
Answer: 0.156

Question: And the Activity (Pseudomonas aeruginosa [37])?
Answer: Active

Question: What about the “fractional inhibitory concentration index (FICI)” value (Escherichia coli [38]) of the same molecule?
Answer: 0.3125

Question: What about the “fractional inhibitory concentration index (FICI)” value (Pseudomonas aeruginosa [39]) of the same molecule?
Answer: 0.375

Question: What about the Activity (Escherichia coli [40]) of the same molecule?
Answer: Active

Question: What about the MIC (Klebsiella pneumoniae [41]) of the same molecule?
Answer: 1 µg/mL
